In publication PMC12339982 (Nature Communications, 2025):

Legend:
[1] = target: T1, human wild type TauT (TauT^WT) (Homo sapiens, UniProt P31641); assay: [3H]taurine uptake inhibition assay in HEK293T cells overexpressing TauT^WT; assay type: cell-based; settings: for inhibition of the uptake activity of TauT: result in words
T1 sequence (P31641 1-620): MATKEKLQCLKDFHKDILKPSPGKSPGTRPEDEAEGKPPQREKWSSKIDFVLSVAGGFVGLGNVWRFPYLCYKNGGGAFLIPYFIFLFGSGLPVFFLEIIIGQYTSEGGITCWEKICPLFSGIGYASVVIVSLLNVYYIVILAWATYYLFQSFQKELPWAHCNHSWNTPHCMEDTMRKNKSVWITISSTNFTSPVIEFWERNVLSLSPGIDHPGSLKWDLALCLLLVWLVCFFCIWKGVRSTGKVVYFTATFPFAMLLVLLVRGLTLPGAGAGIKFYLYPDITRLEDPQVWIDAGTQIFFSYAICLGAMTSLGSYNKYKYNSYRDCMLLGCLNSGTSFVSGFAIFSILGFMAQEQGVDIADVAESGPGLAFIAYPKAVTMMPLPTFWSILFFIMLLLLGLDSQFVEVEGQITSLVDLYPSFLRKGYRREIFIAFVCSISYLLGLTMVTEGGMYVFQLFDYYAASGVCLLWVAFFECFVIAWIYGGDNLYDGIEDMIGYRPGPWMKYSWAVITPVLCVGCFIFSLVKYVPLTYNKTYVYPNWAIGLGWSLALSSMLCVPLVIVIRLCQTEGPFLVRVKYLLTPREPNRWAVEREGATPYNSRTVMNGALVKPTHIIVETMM

hGAT1 = settings: previous studies; cited from earlier work

| SMILES | IC50 [1] [µM] | inhibition of the uptake activity of TauT [1] | IC50 for hGAT1 compared with hTauT (hGAT1) |
| --- | --- | --- | --- |
| O=S(=O)(O)C1CCNCC1 [P4S, piperidine-4-sulfonic acid] |  | concentration-dependently inhibited |  |
| O=C(O)Cc1c[nH]cn1 [I4AA, imidazole-4-acetic acid] |  | concentration-dependently inhibited |  |
| O=C(O)C1CCCNC1 (stereo not shown) [nipecotic acid] |  | concentration-dependently inhibited | lower IC50 value for hGAT1 than for hTauT |

Further lines, with some results ahead:

| IC50 [1] [µM] | inhibition of the uptake activity of TauT [1] | SMILES | IC50 for hGAT1 compared with hTauT (hGAT1) |
| --- | --- | --- | --- |
| 770 ± 160 | concentration-dependently inhibited | NCCCS(=O)(=O)O [Htau, homotaurine] |  |
|  | concentration-dependently inhibited | NCCCCC(=O)O [5AVA, 5-aminovaleric acid] |  |
